Common to all, as to assay type: cell-based, human
The subject of test [1] is HT-29 cells. The experiment in a line: Inhibition test for sphere-forming ability of cancer cells in the presence of BSA (Test Example 2), HT-29. Conditions: in the presence of 5% BSA, cultured 4 days. As for the experimental part:
(§1) Human colorectal cancer-derived HCT-116 cells, human colon-adenocarcinoma-derived HT-29 cells, and human pharyngeal cancer-derived FaDu cells were available from American Type Culture Collection (ATCC). HCT-116 cells and HT-29 cells were cultured at 37° C. under 5% CO2 using the McCoy's 5a medium containing 10% fetal bovine serum (FBS) and 1% penicillin/streptomycin, and FaDu cells were cultured at 37° C. under 5% CO2 using the MEM medium containing 10% FBS, 1% non-essential amino acid, 1% sodium pyruvate, 5% bovine serum albumin (BSA), and 1% penicillin/streptomycin. HCT-116 cells, HT-29 cells, and FaDu cells were seeded in a 384 Well Black Clear Bottom Ultra-Low Attachment Microplate (Corning Cat. No. 3827) in an amount of 350-800 cells/well using the DMEM/F12 medium containing 2% B27 supplement (GIBCO), 20 ng/mL epidermal growth factor (EGF) (peprotech), 10 ng/mL basic fibroblast growth factor (bFGF) (peprotech), 5 μg/mL insulin (Sigma), 5% bovine serum albumin (BSA), and 1% penicillin/streptomycin. Each test compound was added into each well to adjust the final concentration of DMSO to 0.1%, and the cells were cultured for 4 days. The number of viable cells in each well was then measured with CellTiter-Glo® Luminescent Cell Viability Assay (Promega) to calculate the concentration of each test compound for 50% inhibition of cell proliferation (Sphere IC50 value; μmol/L).
(§2) The experiment of Test Example 2 was performed for each compound of each Example.
(§3) The concentration of each test compound for 50% inhibition of cell proliferation (Sphere IC50 value; μmol/L) is shown in the following Table.

Test [2] concerns FaDu cells. Put plainly: Inhibition test for sphere-forming ability of cancer cells in the presence of BSA (Test Example 2), FaDu. The conditions noted are these: in the presence of 5% BSA, cultured 4 days. As for the experimental part:
as §1, §2, §3

The test system of test [3] is HCT-116 cells. Put plainly: Inhibition test for sphere-forming ability of cancer cells (Test Example 1), HCT-116. Conditions: for IC50: HCT-116 cells, concentration for 50% inhibition of cell proliferation, read-out: IC50 (μmol/L) HCT-116 (Sphere IC50 value); for inhibitory effect on the sphere-forming ability of cancer cells: Test Example 1, summary in words, cell line not given (HCT-116, HT-29, FaDu tested). In short, it runs like this:
(§4)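 Cells were seeded at 350-800 cells/well in ultra-low-attachment plates in serum-free DMEM/F12 with 2% B27, 20 ng/mL EGF, 10 ng/mL bFGF and 5 μg/mL insulin. Compounds were added at 0.1% final DMSO for 4 days. Viable cells were read by CellTiter-Glo luminescence to give Sphere IC50 (μmol/L).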

Test [4] has as its system HCT-116 cells. The experiment in a line: Inhibition test for sphere-forming ability of cancer cells in the presence of BSA (Test Example 2), HCT-116. Conditions: for IC50: HCT-116 cells, in the presence of 5% BSA, cultured 4 days; for inhibitory effect on the sphere-forming ability of cancer cells: Test Example 2, in the presence of 5% BSA, summary in words, cell line not given (HCT-116, HT-29, FaDu tested). As for the experimental part:
as §1, §2, §3

The subject of test [5] is FaDu cells. Put plainly: Inhibition test for sphere-forming ability of cancer cells (Test Example 1), FaDu. The conditions noted are these: concentration for 50% inhibition of cell proliferation, read-out: IC50 (μmol/L) FaDu (Sphere IC50 value). An outline of the steps: as §4
Test [6] has as its system HT-29 cells. Put plainly: Inhibition test for sphere-forming ability of cancer cells (Test Example 1), HT-29. The conditions noted are these: concentration for 50% inhibition of cell proliferation, read-out: IC50 (μmol/L) HT-29 (Sphere IC50 value). In short, it runs like this:
as §4

The record followed here is US10898469B2, “Imidazolylamide derivative” (Sumitomo Dainippon Pharma Co., Ltd., priority 2016, dated 2021).

Some results are limits rather than exact numbers.

As to `COc1ccc(C(=O)Nc2cn(Cc3cc(F)ccc3F)cn2)cc1OC` [Example 149], the IC50 in test [1] came out at 6180 nM; in test [2], 2420 nM; in test [3] it was 4.77 µmol/L; in test [4], 7750 nM; in test [5], 0.89 µmol/L; in test [6], 0.75 µmol/L.

Consider `COc1ccc(C(=O)Nc2cn(Cc3ccc(F)cc3)cn2)cc1OC` [Example 146], for which the IC50 in test [1] turned out to be 810 nM; in test [2] it was 550 nM; in test [3], 0.64 µmol/L; in test [4] it was 6020 nM; in test [5], 0.8 µmol/L; in test [6] it was 0.74 µmol/L.

For `O=C(/C=C/c1ccc(NCC(F)(F)F)nc1)Nc1cn(Cc2cccc(Cl)c2)cn1` [Example 15], the IC50 is 60 nM in test [1]; 60 nM in test [2]; less than 0.01 µmol/L in test [3]; 80 nM in test [4]; 0.07 µmol/L in test [5]; 0.06 µmol/L in test [6]. For the same molecule, the “inhibitory effect on the sphere-forming ability of cancer cells” value (from here on “inhibitory effect”) in test [3] and in test [4] was “particularly potent inhibitory effect” in each case.

As to `Cl.O=C(/C=C/c1ccc(F)c(O)c1)Nc1cn(Cc2cccc(Cl)c2)cn1` [Example 38], the IC50 is 580 nM in test [1] (Homo sapiens, 96 h); 30 nM in test [2] (Homo sapiens, 96 h); 0.15 µmol/L in test [3] (Homo sapiens); 720 nM in test [4] (Homo sapiens, HCT-116, 96 h); less than 0.01 µmol/L in test [5] (Homo sapiens); 0.89 µmol/L in test [6] (Homo sapiens). For the same molecule, in test [3], the “inhibitory effect” value is recorded as “particularly potent inhibitory effect”.

As for `O=C(/C=C/C=C/c1ccccc1)Nc1cn(Cc2cccc(Cl)c2)cn1` [Example 46, (2E,4E)-N-(1-(3-Chlorobenzyl)-1H-imidazol-4-yl)-5-phenylpenta-2,4-dienamide], the IC50 was 7600 nM in test [1] (Homo sapiens, 96 h); 4670 nM in test [2] (Homo sapiens, 96 h); 2.62 µmol/L in test [3] (Homo sapiens); more than 10000 nM in test [4] (Homo sapiens, HCT-116, 96 h); 0.79 µmol/L in test [5] (Homo sapiens); 0.62 µmol/L in test [6] (Homo sapiens).

`O=C(Nc1cn(Cc2cccc(Cl)c2)cn1)c1cnc2[nH]ccc2c1` [Example 177]: the IC50 in test [1] was 6390 nM; in test [2], 5260 nM; in test [3] it was 9.96 µmol/L; in test [4], more than 10000 nM; in test [5], 3.62 µmol/L; in test [6] it was 6.75 µmol/L.

In the case of `COc1ccc(C(=O)Nc2cn(Cc3cccc(F)c3)cn2)cc1OC` [Example 145], the IC50 in test [1] came out at 630 nM; in test [2], 340 nM; in test [3], 0.62 µmol/L; in test [4], 1620 nM; in test [5], 0.7 µmol/L; in test [6], 0.62 µmol/L.

For `COc1ccc(C(=O)Nc2cn(Cc3ccc(F)cc3C(F)(F)F)cn2)cc1OC` [Example 163], the IC50 in test [1] is 5460 nM; in test [2] it was 5040 nM; in test [3] it was 3.56 µmol/L; in test [4], more than 10000 nM; in test [5], 1.73 µmol/L; in test [6], 1.51 µmol/L.

With `CNc1ccc(/C=C/C(=O)Nc2cn(Cc3cccc(Cl)c3)cn2)cn1` [Example 16], the IC50 stood at 500 nM in test [1]; 70 nM in test [2]; 0.31 µmol/L in test [3]; 640 nM in test [4]; 0.08 µmol/L in test [5]; 0.06 µmol/L in test [6]. Moreover, the “inhibitory effect” value in test [3] and in test [4] was “particularly potent inhibitory effect” throughout.

For the molecule `COc1ccc(C(=O)Nc2cn(Cc3ccccc3F)cn2)cc1OC` [Example 144], the IC50 in test [1] was 5600 nM; in test [2] it was 4320 nM; in test [3], 5.72 µmol/L; in test [4], more than 10000 nM; in test [5], 5.81 µmol/L; in test [6], 4.71 µmol/L.

As to `COc1ccc(C(=O)Nc2cn(Cc3c(F)cccc3F)cn2)cc1OC` [Example 150], the IC50 in test [1] is more than 10000 nM; in test [2], 7810 nM; in test [3], 0.69 µmol/L; in test [4] it was more than 10000 nM; in test [5], 6.21 µmol/L; in test [6], 3.56 µmol/L.

As to `O=C(Nc1ccc2c(O)cccc2c1)c1cn(Cc2cccc(Cl)c2)cn1` [Example 256], the IC50 worked out at 6610 nM in test [1]; 4410 nM in test [2]; 4.97 µmol/L in test [3]; 6170 nM in test [4]; 0.65 µmol/L in test [5]; 7.24 µmol/L in test [6].

On to `COc1ccc(C(=O)Nc2cn(Cc3ccc(F)c(F)c3)cn2)cc1OC` [Example 151, 3,4-dimethoxy-N-[1-(3,4-difluorobenzyl)-1H-imidazol-4-yl]benzamide], for which the IC50 in test [1] (Homo sapiens, 96 h) was determined as 550 nM; in test [2] (Homo sapiens, 96 h), 330 nM; in test [3] (Homo sapiens), 0.35 µmol/L; in test [4] (Homo sapiens, HCT-116, 96 h) it was 650 nM; in test [5] (Homo sapiens) it was 0.31 µmol/L; in test [6] (Homo sapiens), 0.09 µmol/L. Also, the “inhibitory effect” value in test [3] was “particularly potent inhibitory effect”.

Take `Cc1csc(NC(=O)c2cn(Cc3cccc(Cl)c3)cn2)n1` [Example 257]: the IC50 was found to be 5990 nM in test [1]; 4440 nM in test [2]; 0.8 µmol/L in test [3]; 7460 nM in test [4]; 0.71 µmol/L in test [5]; 0.8 µmol/L in test [6].

Take `COc1ccc(/C=C/C(=O)Nc2cn(Cc3cc(F)c(F)c(F)c3)cn2)cc1OCCO` [Example 32, (E)-3-(3-(2-Hydroxyethoxy)-4-methoxyphenyl)-N-(1-(3,4,5-trifluorobenzyl)-1H-imidazol-4-yl)acrylamide]: the IC50 in test [1] (Homo sapiens, 96 h) came to 60 nM; in test [2] (Homo sapiens, 96 h), 30 nM; in test [3] (Homo sapiens), 0.06 µmol/L; in test [4] (Homo sapiens, HCT-116, 96 h), 60 nM; in test [5] (Homo sapiens), 0.06 µmol/L; in test [6] (Homo sapiens) it was 0.07 µmol/L. Also, the “inhibitory effect” value in test [3] and in test [4] was “particularly potent inhibitory effect” each time.

On to `CCCC(=O)Nc1ccc(/C=C/C(=O)Nc2cn(Cc3cccc(Cl)c3)cn2)cc1` [Example 6, (E)-N-(4-(3-((1-(3-Chlorobenzyl)-1H-imidazol-4-yl)amino)-3-oxoprop-1-en-1-yl)phenyl)butylamide], for which the IC50 in test [1] (Homo sapiens, 96 h) came to 620 nM; in test [2] (Homo sapiens, 96 h) it was 600 nM; in test [3] (Homo sapiens), 0.55 µmol/L; in test [4] (Homo sapiens, HCT-116, 96 h) it was 830 nM; in test [5] (Homo sapiens), 0.17 µmol/L; in test [6] (Homo sapiens) it was 0.18 µmol/L.

For the molecule `O=C(Nc1cn(Cc2cccc(C(F)(F)F)c2)cn1)c1ccc2ncccc2c1` [Example 183], the IC50 was 6400 nM in test [1], 0.94 µmol/L in test [3], more than 10000 nM in test [4] and 0.29 µmol/L in test [6].

In the case of `O=C(Nc1cn(Cc2cccc(C(F)(F)F)c2)cn1)c1cnc2ncccc2c1` [Example 188], the IC50 in test [1] is 850 nM; in test [3], 0.72 µmol/L; in test [4] it was 5540 nM; in test [6], 0.63 µmol/L.

On to `O=C(Nc1cn(Cc2cccc(C(F)(F)F)c2)cn1)c1ccc2cnccc2c1` [Example 186], for which the IC50 came out at 100 nM in test [1], 0.08 µmol/L in test [3], 560 nM in test [4] and 0.05 µmol/L in test [6]. For the same molecule, the “inhibitory effect” value in test [3] and in test [4] was “particularly potent inhibitory effect” each time.
